“Also recorded” adds a separate entry of the source.
Key:
G795A iPSC-microglia [1] = assay: Caspase 3/7 cell death assay (IncuCyte, 24 h imaging); type: cell-based, human; conditions: 250 nM, 500 nM, 1 μm, versus DMSO control
Description: (§1) FIGS. 4A, 4B, 4C, 4D, and 4E show human stem cell-derived microglia are also susceptible to and killed by CSF1R inhibition in vitro. […] Images captured on Incucyte S3 live-cell imager. […] Images captured on Incucyte S3 live-cell imager. […] Images captured on Incucyte S3 live-cell imager. […] Images captured on Incucyte S3 live-cell imager. […] For all panels, n=4 images in six independent wells were quantified. Data represented as mean values±SEM.
(§2) Strategy 1: A crystal structure of the CSF1R receptor bound to an antagonist (PMID: 31434879) to predict amino acid substitutions that may sterically hinder the binding of CSF1R antagonists while not impairing the normal binding of ATP into the same binding pocket. The crystal structure of PLX5622 bound to human CSF1R was obtained and the ATP binding pocket was examined (FIG. 7A). Through molecular modeling single amino acid changes were predicted that would likely impair the binding of PLX5622 or PLX3397 or other CSF1R antagonists while not disrupting normal ATP binding to CSF1R. […] Other mutations could also be explored to prevent binding (FIG. 7D). […] The resulting iPSCs were then differentiated into microglia and exposed to varying concentrations of either PLX3397 or PLX5622. To detect microglial cell death (apoptosis) a caspase-3/7 fluorogenic reporter was used. […] FIG. 4F provided representative images of cell density (phase-contrast microscopy, 1st column) and fluorescent Caspase-3/7 activity (2nd column) across each dose of PLX3397 and PLX5622.
(§3) Resistance to each of the CSF1R inhibitors tested was quantified using a fluorogenic caspase 3/7 detector (Essen BioScience) and time-lapse imaging over 24 hours.
(§4) Cell death assay: iPS-microglia were plated at 70K cells per 96-well plate (6 wells per line per condition). At time 0, all microglia were treated with IncuCyte Caspase-3/7 Green Apoptosis Assay Reagent 1:1000. Cells were maintained in the described medium: fresh complete medium+0.1% DMSO, complete media+250 nM PLX3397, complete medium+500 nM PLX3397, complete medium+1 μm PLX3397, complete medium+250 nM PLX5622, complete medium+500 nM PLX5622, complete medium+1 μm PLX5622, complete medium+250 nM Edicotinib, complete medium+500 nM Edicotinib, complete medium+1 μm Edicotinib, complete medium+250 nM BLZ945, complete medium+500 nM BLZ945, complete medium+1 μm BLZ945. Four 20× images per well were collected every hour for 24 hours. Using IncuCyte 2020B software, image masks for phase confluence (visually gated out apoptotic cells) as well as caspase 3/7 signal (green) were generated. Graphs display caspase normalized to phase confluence, completed with 3 lines: WT, G795A, G795C (see FIGS. 4A, 4B, 4C, 4D, and 4E).

G795C iPSC-microglia = assay: as above; type: cell-based, human; conditions: 250 nM, 500 nM, 1 μm, versus DMSO control
Description: as §1, §2, §3, §4

WT microglia [2] = assay: as above; type: cell-based, human; conditions: 250 nM, 500 nM, 1 μm, versus DMSO control
Description: as §1, §2, §3, §4

G795A iPSC-microglia [3] = assay: LIVE/DEAD viability/cytotoxicity assay; type: cell-based, human; conditions: 500 nM or 1 uM, 24 hours
Protocol: (§5) FIGS. 5A and 5B show G795A iPSC-derived microglia are resistant to CSF1R antagonist-induced cell death. As cells can die from processes other than caspase-mediated apoptosis, it is important to determine whether the G795A mutation provides a more broad-based resistance to any form of cell death induced by CSF1R antagonists. Therefore, G795A and wild-type (WT) iPSC-microglia were treated for 24 hours with either 500 nM (FIG. 5A) or 1 uM (FIG. 5B) of DMSO vehicle control or one of four CSF1R antagonists; PLX3397, PLX5622, Edicotinib, and BLZ945. The percent of live versus dead cells was then quantified using a two-color viability/cytotoxicity approach (Thermo L3224; LIVE/DEAD™ Viability/Cytotoxicity Kit). Very few dead microglia are observed 24 hours after treatment with DMSO. […] Live cells are denoted with a circle.

[4] = tested on: wild-type (WT) iPSC-microglia; assay: LIVE/DEAD viability/cytotoxicity assay; type: cell-based, human; conditions: 500 nM or 1 uM, 24 hours
Protocol: as §5

G795A xMGs = assay: Xenotransplanted human microglia in adult mice, PLX3397 chow, immunohistochemistry; type: in vivo; conditions: 600 mg/kg in rodent chow ad libitum, 4 weeks
Description: (§6) FIGS. 11A, 11B, 110, 11D, 11E, 11F, 11G, 11H, 11I, and 11J show G795A iPSC-derived microglia are resistant to CSF1R […] treatment and enable robust engraftment of human microglia within the adult mammalian brain. Xenotransplantation-compatible mice received bilateral stereotactic intrahippocampal injections of 500,000 iPSC-derived human microglia (xMGs) at 2-months of age. Mice received xMGs differentiated from either a homozygous CSF1R-resistant G795A human IPSO line or an isogenic unmodified Wad-Type human iPSC. At […], mice were treated with 600 mg/kg of PLX3397 in rodent chow ad libitum for 4 weeks duration. Mice were then sacrificed, and half-brains were examined by fluorescent immunohistochemistry and confocal microscopy.

wild-type human xMGs = assay: as above; type: in vivo; conditions: 600 mg/kg in rodent chow ad libitum, 4 weeks
Description: as §6

[5] = tested on: CSF1R-G795A human iPSC-microglia; assay: Quantification of human iPSC-microglial engraftment (Ku80+/Iba1+) in adult hCSF1 mice; type: in vivo; conditions: after CSF1R-G795A iPSC-microglia transplantation, 600 mg/kg PLX3397 in food
Protocol: In contrast, when CSF1R-G795A iPSC-microglia transplantation is followed with treatment of mice for 10 days with PLX3397 containing mouse chow (600 mg/kg PLX3397 in food), the percent of human microglia increases to almost 25%. After 30 days of PLX3397 treatment (600 mg/kg PLX3397 in food), 90-95% of all microglia in the brain are human as evidenced by co-expression of Ku80 and IBA1. By transplanting CSF1R-G795A iPSC-microglia and varying the concentration and duration of CSF1R antagonist treatment either before, during, or after transplantation, one can control the degree of human iPSC-microglial engraftment.

MUT1 (G795A) microglia = assay: RNA-seq after 24-hour treatment versus DMSO; type: cell-based, human
Description: (§7) FIGS. 2A, 2B, 2C, 2D, 2E, and 2F show selected CSF1R mutations have little effect on transcriptomic signature while simultaneously imparting resistance to PLX5622.

MUT2 (G795C) microglia = assay: RNA-seq after 24-hour treatment versus DMSO; type: cell-based, human
Description: as §7

WT microglia [6] = assay: RNA-seq after 24-hour treatment versus DMSO; type: cell-based, human; conditions: FDR≤0.05, log 2(FC)≥±1
Description: as §7

## CNC(=O)c1cc(Oc2ccc3nc(N[C@@H]4CCCC[C@H]4O)sc3c2)ccn1 [BLZ945]
G795A iPSC-microglia [1]
  caspase 3/7 levels (cell death, apoptosis): no significant increase in caspase levels
G795C iPSC-microglia
  caspase 3/7 levels (cell death, apoptosis): no significant increase in caspase levels
WT microglia [2]
  caspase 3/7 levels (cell death, apoptosis): significant levels of increased caspase
G795A iPSC-microglia [3]
  cell death (live versus dead cells): little-to-no cell death
[4]
  cell death (live versus dead cells): substantial cell death

## CC1(C)CC=C(c2nc(C3CC(C)(C)OC(C)(C)C3)ccc2NC(=O)c2nc(C#N)c[nH]2)CC1 [Edicotinib]
G795A iPSC-microglia [1]
  caspase 3/7 levels (cell death, apoptosis): no significant increase in caspase levels
G795C iPSC-microglia
  caspase 3/7 levels (cell death, apoptosis): no significant increase in caspase levels
WT microglia [2]
  caspase 3/7 levels (cell death, apoptosis): significant levels of increased caspase
G795A iPSC-microglia [3]
  cell death (live versus dead cells): little-to-no cell death
[4]
  cell death (live versus dead cells): substantial cell death

## FC(F)(F)c1ccc(CNc2ccc(Cc3c[nH]c4ncc(Cl)cc34)cn2)cn1 [PLX3397]
G795A iPSC-microglia [1]
  caspase 3/7 levels (cell death, apoptosis): complete resistance to cell death; also recorded: no significant increase in caspase levels
G795C iPSC-microglia
  caspase 3/7 levels (cell death, apoptosis): complete resistance to cell death; also recorded: no significant increase in caspase levels
WT microglia [2]
  caspase 3/7 levels (cell death, apoptosis): robust dose-dependent induction of apoptosis; also recorded: significant levels of increased caspase
G795A iPSC-microglia [3]
  cell death (live versus dead cells): little-to-no cell death
[4]
  cell death (live versus dead cells): substantial cell death
G795A xMGs
  survival and expansion of transplanted xMGs in the brain: proliferate and expand
wild-type human xMGs
  survival of transplanted xMGs in the brain: only a handful of wild-type human xMGs survive
[5]; 10 days
  percent of human microglia (Ku80+/Iba1+) of total microglia: ~25%
[5]; 30 days
  percent of human microglia (Ku80+/Iba1+) of total microglia: 90-95%

## COc1ncc(F)cc1CNc1ccc(Cc2c[nH]c3ncc(C)cc23)c(F)n1 [PLX5622]
G795A iPSC-microglia [1]
  caspase 3/7 levels (cell death, apoptosis): complete resistance to cell death; also recorded: no significant increase in caspase levels
G795C iPSC-microglia
  caspase 3/7 levels (cell death, apoptosis): complete resistance to cell death; also recorded: no significant increase in caspase levels
WT microglia [2]
  caspase 3/7 levels (cell death, apoptosis): robust dose-dependent induction of apoptosis; also recorded: significant levels of increased caspase
G795A iPSC-microglia [3]
  cell death (live versus dead cells): little-to-no cell death
[4]
  cell death (live versus dead cells): substantial cell death
MUT1 (G795A) microglia
  transcriptomic alterations versus DMSO-treated cells: failed to significantly alter gene expression
MUT2 (G795C) microglia
  transcriptomic alterations versus DMSO-treated cells: failed to significantly alter gene expression
WT microglia [6]
  transcriptomic alterations versus DMSO-treated cells: induced significant transcriptomic alterations

— patent US12421517B2, “Genetic modification of mammalian cells to confer resistance to CSF1R antagonists” (THE REGENTS OF THE UNIVERSITY OF CALIFORNIA, priority 2021, dated 2025)
